Read-outs that look alike come from different tables or passages of the source.
How the values were obtained:
Format in all cases: in vivo
[1] = tested on: Mediterranean fruitfly (Ceratitis capitata); experiment: Action on Mediterranean fruitfly, eggs on insect diet in microtiter plates; details: 120 h, egg and larval mortality visually assessed after 5 days, read-out: mortality in comparison with untreated controls
Method: Example B5: Action on Mediterranean Fruitfly (Ceratitis capitata)
For evaluating control of Mediterranean fruitfly (Ceratitis capitata) the test unit consisted of microtiter plates containing an insect diet and 50-80 C. capitata eggs.
(§1) The compounds were formulated using a solution containing 75% v/v water and 25% v/v DMSO. Different concentrations of formulated compounds were sprayed onto the insect diet at 5 μl, using a custom built micro atomizer, at two replications.
After application, microtiter plates were incubated at about […] and about 80+5% relative humidity for 5 days. Egg and larval mortality was then visually assessed.

[2] = tested on: boll weevil (Anthonomus grandis); experiment: Action on boll weevil, eggs on insect diet in 96-well microtiter plates; details: 120 h, read-out: mortality in comparison with untreated controls
Method: Example B3: Action on Boll Weevil (Anthonomus grandis)
For evaluating control of boll weevil (Anthonomus grandis) the test unit consisted of 96-well-microtiter plates containing an insect diet and 5-10 A. grandis eggs.
as §1
After application, microtiter plates were incubated at about 25±1° C. and about 75±5% relative humidity for 5 days. Egg and larval mortality was then visually assessed.

[3] = tested on: Southern Armyworm (Spodoptera eridania), 2nd instar larvae; experiment: Action on southern armyworm 2nd instar larvae, sprayed lima bean plants; details: 96 h, 4 days after treatment, read-out: mortality in comparison with untreated controls
Method: Example B10: Action on Southern Armyworm (Spodoptera eridania), 2nd Instar Larvae
The active compounds were formulated by a Tecan liquid handler in 100% cyclohexanone as a 10,000 ppm solution supplied in tubes. The 10,000 ppm solution was serially diluted in 100% cyclohexanone to make interim solutions. These served as stock solutions for which final dilutions were made by the Tecan in 50% acetone:50% water (v/v) into 10 or 20 ml glass vials. A nonionic surfactant (Kinetic®) was included in the solution at a volume of 0.01% (v/v). The vials were then inserted into an automated electrostatic sprayer equipped with an atomizing nozzle for application to plants/insects.
Lima bean plants (variety Sieva) were grown 2 plants to a pot and selected for treatment at the 1st true leaf stage. Test solutions were sprayed onto the foliage by an automated electrostatic plant sprayer equipped with an atomizing spray nozzle. The plants were dried in the sprayer fume hood and then removed from the sprayer. Each pot was placed into perforated plastic bags with a zip closure. About 10 to 11 armyworm larvae were placed into the bag and the bags zipped closed. Test plants were maintained in a growth room at about 25° C. and about 20-40% relative humidity for 4 days, avoiding direct exposure to fluorescent light (24 hour photoperiod) to prevent trapping of heat inside the bags. Mortality and reduced feeding were assessed 4 days after treatment, compared to untreated control plants.

[4] = tested on: Orchid Thrips (Dichromothrips corbetti); experiment: Action on orchid thrips, floral-immersion technique; details: adult thrips, 72 hours after treatment, read-out: mortality in comparison with untreated controls
Method: Example B2: Action on Orchid Thrips (Dichromothrips Corbetti)
Dichromothrips corbettiadults used for bioassay were obtained from a colony maintained continuously under laboratory conditions. For testing purposes, the test compound is diluted in a 1:1 mixture of acetone:water (vol:vol), plus Kinetic® HV at a rate of 0.01% v/v.
Thrips potency of each compound was evaluated by using a floral-immersion technique. All petals of individual, intact orchid flowers were dipped into treatment solution and allowed to dry in Petri dishes. Treated petals were placed into individual re-sealable plastic along with about 20 adult thrips. All test arenas were held under continuous light and a temperature of about 28° C. for duration of the assay. After 3 days, the numbers of live thrips were counted on each petal. The percent mortality was recorded 72 hours after treatment.

[5] = tested on: tobacco budworm (Heliothis virescens); experiment: Action on tobacco budworm, eggs on insect diet in 96-well microtiter plates; details: 120 h, egg and larval mortality visually assessed after 5 days, read-out: mortality in comparison with untreated controls
Method: Example B6: Action on Tobacco Budworm (Heliothis virescens)
For evaluating control of tobacco budworm (Heliothis virescens) the test unit consisted of 96-well-microtiter plates containing an insect diet and 15-25 H. virescens eggs.
The compounds were formulated using a solution containing 75% v/v water and 25% v/v DMSO. Different concentrations of formulated compounds were sprayed onto the insect diet at 10 μl, using a custom built micro atomizer, at two replications.
After application, microtiter plates were incubated at about 28±1° C. and about 80±5% relative humidity for 5 days. Egg and larval mortality was then visually assessed.

[6] = tested on: Diamond Back Moth (Plutella xylostella); experiment: Action on diamond back moth, dipped cabbage leaves; details: 3rd instar larvae, 72 hours after treatment, read-out: mortality in comparison with untreated controls
Method: Example B9: Action on Diamond Back Moth (Plutella xylostella)
The active compound is dissolved at the desired concentration in a mixture of 1:1 (vol:vol) distilled water:acetone. Surfactant (Kinetic® HV) is added at a rate of 0.01% (vol/vol). The test solution is prepared at the day of use.
Leaves of cabbage were dipped in test solution and air-dried. Treated leaves were placed in petri dishes lined with moist filter paper and inoculated with ten 3rd instar larvae. Mortality was recorded 72 hours after treatment. Feeding damages were also recorded using a scale of 0-100%.

[7] = tested on: yellow fever mosquito (Aedes aegypti); experiment: whole plant or invertebrate; details: 48 h, larval mortality visually assessed after 2 days, read-out: mortality in comparison with untreated controls
Method: Example B1: Action on Yellow Fever Mosquito (Aedes aegypti)
For evaluating control of yellow fever mosquito (Aedes aegypti) the test unit consisted of 96-well-microtiter plates containing 200 μl of tap water per well and 5-15 freshly hatched A. aegypti larvae.
The active compounds were formulated using a solution containing 75% (v/v) water and 25% (v/v) DMSO. Different concentrations of formulated compounds or mixtures were sprayed onto the insect diet at 2.5 μl, using a custom built micro atomizer, at two replications.
After application, microtiter plates were incubated at 28+1° C., 80+5% RH for 2 days. Larval mortality was then visually assessed.

[8] = 800 ppm, egg and larval mortality visually assessed after 5 days

Cc1cccc(C)c1N1C(=O)CS/C1=N\N=C\c1cnc2c(ccc3c2ncn3-c2ccc(OC(F)(F)F)cc2)c1 [Compound C-15, (2Z)-3-(2,6-dimethylphenyl)-2-[(E)-[3-[4-(trifluoromethoxy)phenyl]imidazo[4,5-h]quinolin-7-yl]methylenehydrazono]thiazolidin-4-one]
≥ 75%: mortality at 800 ppm [1] | mortality at 800 ppm [2, 8] | mortality at 500 ppm [3] | mortality at 500 ppm [4] | mortality at 800 ppm [5] | mortality at 500 ppm [6] | mortality at 800 ppm [7]

Cc1cccc(C)c1/N=C1\SCC(=O)N1/N=C/c1ccc2c(ccc3c2ncn3-c2ccc(OC(F)(F)F)cc2)n1 [Compound C-7, (2Z)-2-(2,6-dimethylphenyl)imino-3-[(E)-[3-[4-(trifluoromethoxy)phenyl]imidazo[4,5-f]quinolin-7-yl]methyleneamino]thiazolidin-4-one]
≥ 75%: mortality at 800 ppm [1] | mortality at 800 ppm [2, 8] | mortality at 500 ppm [3] | mortality at 500 ppm [4] | mortality at 800 ppm [5] | mortality at 500 ppm [6] | mortality at 800 ppm [7]

CC(C)c1ccccc1N1C(=O)CS/C1=N\N=C\c1cc2ccc3c(ncn3-c3ccc(OC(F)(F)F)cc3)c2cn1 [Compound C-26, (2Z)-3-(2-isopropylphenyl)-2-[(E)-[3-[4-(trifluoromethoxy)phenyl]imidazo[4,5-h]isoquinolin-7-yl]methylenehydrazono]thiazolidin-4-one]
≥ 75%: mortality at 800 ppm [1] | mortality at 800 ppm [2, 8] | mortality at 500 ppm [3] | mortality at 500 ppm [4] | mortality at 800 ppm [5] | mortality at 500 ppm [6] | mortality at 800 ppm [7]

CC(C)c1ccccc1N1CCCS/C1=N/N=C/c1ccc2c(ccc3c2ncn3-c2ccc(OC(F)(F)F)cc2)n1 [Compound C-22, (E)-3-(2-isopropylphenyl)-N-[(E)-[3-[4-(trifluoromethoxy)phenyl]imidazo[4,5-f]quinolin-7-yl]methyleneamino]-1,3-thiazinan-2-imine]
≥ 75%: mortality at 800 ppm [1] | mortality at 800 ppm [2, 8] | mortality at 500 ppm [4] | mortality at 800 ppm [5] | mortality at 500 ppm [6] | mortality at 800 ppm [7]

Cc1cccc(C)c1N1C(=O)CS/C1=N\N=C\c1cc2ccc3c(ncn3-c3ccc(OC(F)(F)F)cc3)c2cn1 [Compound C-27, (2Z)-3-(2,6-dimethylphenyl)-2-[(E)-[3-[4-(trifluoromethoxy)phenyl]imidazo[4,5-h]isoquinolin-7-yl]methylenehydrazono]thiazolidin-4-one]
≥ 75%: mortality at 800 ppm [1] | mortality at 800 ppm [2, 8] | mortality at 500 ppm [3] | mortality at 500 ppm [4] | mortality at 800 ppm [5] | mortality at 500 ppm [6] | mortality at 800 ppm [7]

Cc1cccc(C)c1NC(=S)N/N=C/c1cnc2c(ccc3c2ncn3-c2ccc(OC(F)(F)F)cc2)c1 [Compound C-14, 1-(2,6-dimethylphenyl)-3-[(E)-[3-[4-(trifluoromethoxy)phenyl]imidazo[4,5-h]quinolin-7-yl]methyleneamino]thiourea]
≥ 75%: mortality at 800 ppm [1] | mortality at 800 ppm [2, 8] | mortality at 500 ppm [4] | mortality at 800 ppm [5] | mortality at 500 ppm [6] | mortality at 800 ppm [7]

Cc1cccc(C)c1NC(=S)N/N=C/c1ccc2c(ccc3c2ncn3-c2ccc(OC(F)(F)F)cc2)n1 [Compound C-1, 1-(2,6-dimethylphenyl)-3-[(E)-[3-[4-(trifluoromethoxy)phenyl]imidazo[4,5-f]quinolin-7-yl]methyleneamino]thiourea]
≥ 75%: mortality at 800 ppm [1] | mortality at 800 ppm [2, 8] | mortality at 800 ppm [5] | mortality at 800 ppm [7]

CC(C)c1ccccc1NC(=S)N/N=C/c1cc2ccc3c(ncn3-c3ccc(OC(F)(F)F)cc3)c2cn1 [Compound C-24, 1-(2-isopropylphenyl)-3-[(E)-[3-[4-(trifluoromethoxy)phenyl]imidazo[4,5-h]isoquinolin-7-yl]methyleneamino]thiourea]
≥ 75%: mortality at 800 ppm [1] | mortality at 800 ppm [2, 8] | mortality at 500 ppm [3] | mortality at 800 ppm [5] | mortality at 500 ppm [6]

CC1CCC(C(C)C)C(OC(=O)Nc2ccc3c(ccc4c3ncn4-c3ccc(OC(F)(F)F)cc3)n2)C1 (stereo not drawn) [Compound C-12, (2-isopropyl-5-methyl-cyclohexyl) N-[3-[4-(trifluoromethoxy)phenyl]imidazo[4,5-f]quinolin-7-yl]carbamate]
≥ 75%: mortality at 800 ppm [2]

CC(C)c1ccccc1NC(=S)N/N=C/c1ccc2c(ccc3c2ncn3-c2ccc(OC(F)F)cc2)n1 [Compound C-31, 1-[(E)-[3-[4-(difluoromethoxy)phenyl]imidazo[4,5-f]quinolin-7-yl]methyleneamino]-3-(2-isopropylphenyl)thiourea]
≥ 75%: mortality at 500 ppm [4] | mortality at 500 ppm [6]

Cc1cccc(C)c1NC(=S)N/N=C/c1cc2ccc3c(ncn3-c3ccc(OC(F)(F)F)cc3)c2cn1 [Compound C-25, 1-(2,6-dimethylphenyl)-3-[(E)-[3-[4-(trifluoromethoxy)phenyl]imidazo[4,5-h]isoquinolin-7-yl]methyleneamino]thiourea]
≥ 75%: mortality at 800 ppm [1] | mortality at 800 ppm [2, 8] | mortality at 800 ppm [5] | mortality at 500 ppm [6]

CC(C)c1ccccc1NC(=S)N/N=C/c1cnc2c(ccc3c2ncn3-c2ccc(OC(F)(F)F)cc2)c1 [Compound C-13, 1-(2-isopropylphenyl)-3-[(E)-[3-[4-(trifluoromethoxy)phenyl]imidazo[4,5-h]quinolin-7-yl]methyleneamino]thiourea]
≥ 75%: mortality at 800 ppm [1] | mortality at 800 ppm [2, 8] | mortality at 500 ppm [3] | mortality at 800 ppm [5] | mortality at 500 ppm [6]

CC(C)c1ccccc1N1C(=O)CS/C1=N/N=C/c1ccc2c(ccc3c2ncn3-c2ccc(OC(F)F)cc2)n1 [Compound C-32, (2E)-2-[(E)-[3-[4-(difluoromethoxy)phenyl]imidazo[4,5-f]quinolin-7-yl]methylenehydrazono]-3-(2-isopropylphenyl)thiazolidin-4-one]
≥ 75%: mortality at 500 ppm [4] | mortality at 500 ppm [6]

Source: patent publication US10106558B2, “Azolobenzazine compounds, compositions comprising these compounds and their use for controlling invertebrate pests” (BASF SE, priority 2015, dated 2018)
